The subject of one data set is C57BL6 mice. Nature of the data set: in vivo. The conditions noted are these: for Maximum tolerated dose mg/kg ip qD × 4: MTD = >10% body weight loss, C57BL6 mice; for Ratio liver toxicity/lymphocyte toxicity: liver toxicity relative to wortmannin/decrease in blood lymphocytes relative to wortmannin. The text has this: (§1) Highlighted are the compounds being made for antitumor testing.

A further data set is described as follows: in vivo. The note with it: C57BL6, mouse, in vivo, ip.
Description: as §1

For another data set, the target named is mTOR (Homo sapiens, UniProt P42345). Nature of the data set: mTOR inhibition. The format is biochemical.
Description: as §1

Data set [1] has as its system NCI cell panel (60 cell lines). Nature of the data set: cytotoxicity NCI cell panel, MTT assay. The conditions noted are these: 48 h, read-out: cytotoxicity NCI cell panel IC50.
Description: as §1
In general terms: Formazan colour is commonly taken as a measure of viable cells.

pIC50: −log10 of the molar value. Bounds are passed on as bounds.

In the case of `COC[C@H]1OC(=O)/C(=C/SCc2ccccc2)C2=C(O)C(=O)C3=C([C@H](OC(C)=O)C[C@]4(C)C(=O)CC[C@@H]34)[C@]21C` [DJM2-170], in the data set with C57BL6 mice, the “Maximum tolerated dose mg/kg ip qD × 4” value is recorded as 9 mg/kg and the “Ratio liver toxicity/lymphocyte toxicity” value amounted to 1.5. For `COC[C@H]1OC(=O)c2coc3c2[C@@]1(C)C1=C(C3=O)[C@@H]2CCC(=O)[C@@]2(C)C[C@H]1OC(C)=O` [wortmannin, reference compound], the MTD at 4 days in “in vivo” worked out at 2.5 mg/kg.

A word on the pIC50: it is the negative decadic logarithm of the IC50, by convention in mol/L. For the compound `C=CCN(/C=C1/C(=O)O[C@H](COC)[C@@]2(C)C1=C(O)C(=O)C1=C2[C@H](OC(C)=O)C[C@]2(C)C(=O)CC[C@@H]12)CC=C` [DJM2-166, Acetic acid 4-diallylaminomethylene-6-hydroxy-1-α-methoxymethyl-10β,13β-dimethyl-3,7,17-trioxo-1,3,4,7,10,11β,12,13,14α,15,16,17-dodecahydro-2-oxa-cyclopenta[α]phenanthren-11-yl ester], the pIC50 against mTOR was less than 5.52; in data set [1], 5.66. In the same order, the values of `COC[C@H]1OC(=O)/C(=C/N2CCCC2)C2=C(O)C(=O)C3=C([C@H](OC(C)=O)C[C@]4(C)C(=O)CC[C@@H]34)[C@]21C` [DJM2-167, Acetic acid 6-hydroxy-1α-methoxymethyl-10β,13β-dimethyl-3,7,17-trioxo-4-pyrrolidin-1-yl-methylene-1,3,4,7,10,11β,12,13,14α,15,16,17-dodecahydro-2-oxa-cyclopenta[α]phenanthren-11-yl] are less than 5.52 and 6.30.

As to `COC[C@H]1OC(=O)/C(=C/NC(C)C(=O)O)C2=C(O)C(=O)C3=C([C@H](OC(C)=O)C[C@]4(C)C(=O)CC[C@@H]34)[C@]21C` (stereo partly drawn) [DJM2-177], in the data set on C57BL6 mice, the “Maximum tolerated dose mg/kg ip qD × 4” value stood at 6 mg/kg and the “Ratio liver toxicity/lymphocyte toxicity” value is on record as 0.1.

The values are drawn from patent US6703414B2, “Device and method for treating restenosis” (Arizona Board of Regents on behalf of the University of …, priority 2001, dated 2004).
